{"source": "paper PMC8776995", "about": "(Frontiers in Chemistry, 2022)", "key": {"A549 cells": {"tested_on": "A549 cells", "assay": "CCK-8 antiproliferation assay, A549", "conditions": "for Inhibitory efficacy: A549 cells"}, "PC-9 cells": {"tested_on": "PC-9 cells", "assay": "CCK-8 antiproliferation assay, PC-9", "conditions": "for Inhibitory efficacy: single repeats (Repeat 1-3), given as fraction"}, "wild-type EGFR": {"biological_target": "wild-type EGFR (Homo sapiens, UniProt P00533)", "sequence (P00533 25-1210)": "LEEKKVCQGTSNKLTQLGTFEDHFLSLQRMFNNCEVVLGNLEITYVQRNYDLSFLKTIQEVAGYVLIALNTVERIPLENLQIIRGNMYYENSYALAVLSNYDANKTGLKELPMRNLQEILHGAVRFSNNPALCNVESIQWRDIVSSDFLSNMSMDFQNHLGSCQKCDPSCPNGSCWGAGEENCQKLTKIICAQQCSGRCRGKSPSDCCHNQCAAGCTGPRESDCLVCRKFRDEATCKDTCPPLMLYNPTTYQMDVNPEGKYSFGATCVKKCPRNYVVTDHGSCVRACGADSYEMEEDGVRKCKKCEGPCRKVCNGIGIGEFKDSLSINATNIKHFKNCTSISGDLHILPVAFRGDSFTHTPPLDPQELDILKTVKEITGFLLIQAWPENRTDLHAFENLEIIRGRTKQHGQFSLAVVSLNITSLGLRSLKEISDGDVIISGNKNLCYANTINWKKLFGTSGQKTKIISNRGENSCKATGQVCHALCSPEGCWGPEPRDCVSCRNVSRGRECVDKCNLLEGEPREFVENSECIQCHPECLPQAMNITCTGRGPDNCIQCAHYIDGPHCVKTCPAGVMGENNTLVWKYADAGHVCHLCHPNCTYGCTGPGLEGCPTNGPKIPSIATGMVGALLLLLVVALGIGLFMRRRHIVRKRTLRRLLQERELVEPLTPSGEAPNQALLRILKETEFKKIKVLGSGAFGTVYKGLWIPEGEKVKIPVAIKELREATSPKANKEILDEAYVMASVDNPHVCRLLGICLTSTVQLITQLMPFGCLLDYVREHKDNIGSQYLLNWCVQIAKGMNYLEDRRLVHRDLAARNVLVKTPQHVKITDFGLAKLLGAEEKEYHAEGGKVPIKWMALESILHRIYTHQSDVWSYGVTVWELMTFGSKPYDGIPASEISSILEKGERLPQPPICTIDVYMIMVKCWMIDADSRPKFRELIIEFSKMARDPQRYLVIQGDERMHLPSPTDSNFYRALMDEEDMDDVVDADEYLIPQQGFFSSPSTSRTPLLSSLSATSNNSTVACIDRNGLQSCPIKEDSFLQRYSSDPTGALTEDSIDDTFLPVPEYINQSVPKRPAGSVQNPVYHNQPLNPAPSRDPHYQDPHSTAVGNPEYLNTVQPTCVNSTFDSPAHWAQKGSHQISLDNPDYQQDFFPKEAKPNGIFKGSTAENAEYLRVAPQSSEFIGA", "assay": "EGFR kinase assay (ELISA)", "conditions": "for A450: raw ELISA absorbance", "procedure": "The kinase enzyme of EGFR was purchased from Carna Bioscience (Kobe, Japan). A total of 10 ng/ml anti phosphotyrosine (PY713) antibody (abcam, Cambridge Science Park, United Kingdom) was precoated in 96-well ELISA plates. […] Then, a total of 3 μmol/L ATP was added and the reaction was continued for 2 h. […] After incubation, the wells were washed with PBS and then incubated with horseradish peroxidase (HRP)-conjugated streptavidin. The wells were visualized using 3,3′,5,5′-tetramethylbenzidine (TMB), and chromogenic reaction was ended with 2 mol/L H2SO4, the absorbance was read with a multimode plate reader (PerkinElmer, United States) at 450 nm."}, "H460 cells": {"tested_on": "H460 cells", "assay": "CCK-8 antiproliferation assay, H460", "conditions": "for Inhibitory efficacy: H460 cells"}, "H1975 cells": {"tested_on": "H1975 cells", "assay": "CCK-8 antiproliferation assay, H1975", "conditions": "for Inhibitory efficacy: H1975 cells"}, "[1]": {"conditions": "2uM, given as fraction, Repeat 1-3"}, "[2]": {"conditions": "4uM, given as fraction, Repeat 1-3"}, "[3]": {"conditions": "8uM, given as fraction, Repeat 1-3"}, "[4]": {"conditions": "16uM, given as fraction, Repeat 1-3"}}, "note": "Several values for one entry are separate records, joined by “and”; a condition that tells them apart may be missing. Identical values can stand only once."}
{"smiles": "COCCOc1cc2ncnc(Nc3cccc(-c4cn(-c5ccccc5OC)nn4)c3)c2cc1OCCOC", "note": "[e11, [6,7-Bis-(2-methoxy-ethoxy)-quinazolin-4-yl]-{3-[1-(2-methoxy-phenyl)-1H-[1,2,3]triazol-4-yl]-phenyl}-amine]", "values": [{"measurement": "Inhibitory efficacy", "setting": "A549 cells; [1]", "value": "0.1633 and 0.2142"}, {"measurement": "Inhibitory efficacy", "setting": "A549 cells; [2]", "value": "0.2462 and 0.3291"}, {"measurement": "Inhibitory efficacy", "setting": "A549 cells; [3]", "value": "0.4514 and 0.4662"}, {"measurement": "Inhibitory efficacy", "setting": "A549 cells; [4]", "value": "0.7059 and 0.6624"}, {"measurement": "IC50", "setting": "A549 cells; Homo sapiens, A549, 48 h, read-out: IC50 (μM) A549, CCK-8, 48 h, average ± SD of three independent experiments", "value": "8.4 ± 0.29", "unit": "µM"}, {"measurement": "inhibition at 2 µM", "setting": "A549 cells; Homo sapiens, A549, read-out: Inhibitory efficacy, A549 cells, 2uM, given as fraction, Repeat 1-3", "value": 20.1, "unit": "%"}, {"measurement": "inhibition at 4 µM", "setting": "A549 cells; Homo sapiens, A549, read-out: Inhibitory efficacy, A549 cells, 4uM, given as fraction, Repeat 1-3", "value": 25, "unit": "%"}, {"measurement": "inhibition at 8 µM", "setting": "A549 cells; Homo sapiens, A549, read-out: Inhibitory efficacy, A549 cells, 8uM, given as fraction, Repeat 1-3", "value": 52.7, "unit": "%"}, {"measurement": "inhibition at 16 µM", "setting": "A549 cells; Homo sapiens, A549, read-out: Inhibitory efficacy, A549 cells, 16uM, given as fraction, Repeat 1-3", "value": 68.7, "unit": "%"}, {"measurement": "IC50", "setting": "PC-9 cells; Homo sapiens, PC-9, 48 h, read-out: IC50 (μM) PC-9", "value": "16 ± 1.04", "unit": "µM"}, {"measurement": "inhibition at 8 µM", "setting": "PC-9 cells; Homo sapiens, PC-9, read-out: Inhibitory efficacy, PC-9, 8uM, single repeats (Repeat 1-3), given as fraction", "value": 27.4, "unit": "%"}, {"measurement": "inhibition at 16 µM", "setting": "PC-9 cells; Homo sapiens, PC-9, read-out: Inhibitory efficacy, PC-9, 16uM, single repeats (Repeat 1-3), given as fraction", "value": 46.7, "unit": "%"}, {"measurement": "Inhibitory efficacy", "setting": "PC-9 cells; PC-9, 8uM, 8 µM", "value": "0.2959 and 0.2658"}, {"measurement": "Inhibitory efficacy", "setting": "PC-9 cells; PC-9, 16uM, 16 µM", "value": "0.4848 and 0.4258"}, {"measurement": "IC50", "setting": "wild-type EGFR; IC50 (μM) EGFR, ELISA, 3 μmol/L ATP", "value": 49.4, "unit": "µM"}, {"measurement": "inhibition at 100 fM", "setting": "wild-type EGFR; concentration 0.0001 nM (reference for normalisation), one value per replicate column", "value": 0, "unit": "%"}, {"measurement": "inhibition at 30 pM", "setting": "wild-type EGFR; concentration 0.03 nM, one value per replicate column", "value": 4.93, "unit": "%"}, {"measurement": "Inhibition", "setting": "wild-type EGFR; concentration 0.03 nM, one value per replicate column, 3e-05 µM", "value": 3.3195}, {"measurement": "inhibition at 0.0003 µM", "setting": "wild-type EGFR; concentration 0.3 nM, one value per replicate column", "value": 5.78, "unit": "%"}, {"measurement": "Inhibition", "setting": "wild-type EGFR; concentration 0.3 nM, one value per replicate column, 0.0003 µM", "value": 3.734}, {"measurement": "inhibition at 0.003 µM", "setting": "wild-type EGFR; concentration 3 nM, one value per replicate column", "value": 6.42, "unit": "%"}, {"measurement": "Inhibition", "setting": "wild-type EGFR; concentration 3 nM, one value per replicate column, 0.003 µM", "value": 4.357}, {"measurement": "inhibition at 0.03 µM", "setting": "wild-type EGFR; concentration 30 nM, one value per replicate column", "value": 7.71, "unit": "%"}, {"measurement": "Inhibition", "setting": "wild-type EGFR; concentration 30 nM, one value per replicate column, 0.03 µM", "value": 6.432}, {"measurement": "inhibition at 0.3 µM", "setting": "wild-type EGFR; concentration 300 nM, one value per replicate column", "value": 13.1, "unit": "%"}, {"measurement": "Inhibition", "setting": "wild-type EGFR; concentration 300 nM, one value per replicate column, 0.3 µM", "value": 8.091}, {"measurement": "inhibition at 3 µM", "setting": "wild-type EGFR; concentration 3000 nM, one value per replicate column", "value": 13.3, "unit": "%"}, {"measurement": "Inhibition", "setting": "wild-type EGFR; concentration 3000 nM, one value per replicate column, 3 µM", "value": 12.4481}, {"measurement": "inhibition at 30 µM", "setting": "wild-type EGFR; concentration 30000 nM, one value per replicate column", "value": 46.9, "unit": "%"}, {"measurement": "Inhibition", "setting": "wild-type EGFR; concentration 30000 nM, one value per replicate column, 30 µM", "value": 45.2282}, {"measurement": "A450", "setting": "wild-type EGFR; concentration 0.0001 nM", "value": "0.614 and 0.641"}, {"measurement": "A450", "setting": "wild-type EGFR; concentration 0.03 nM", "value": "0.591 and 0.625"}, {"measurement": "A450", "setting": "wild-type EGFR; concentration 0.3 nM", "value": "0.587 and 0.623"}, {"measurement": "A450", "setting": "wild-type EGFR; concentration 3 nM", "value": "0.584 and 0.62"}, {"measurement": "A450", "setting": "wild-type EGFR; concentration 30 nM", "value": "0.578 and 0.61"}, {"measurement": "A450", "setting": "wild-type EGFR; concentration 300 nM", "value": "0.553 and 0.602"}, {"measurement": "A450", "setting": "wild-type EGFR; concentration 3000 nM", "value": "0.552 and 0.581"}, {"measurement": "A450", "setting": "wild-type EGFR; concentration 30000 nM", "value": "0.395 and 0.423"}, {"measurement": "Inhibitory efficacy", "setting": "H460 cells; [1]", "value": "0.2801 and 0.2884"}, {"measurement": "Inhibitory efficacy", "setting": "H460 cells; [2]", "value": "0.5058 and 0.5573"}, {"measurement": "Inhibitory efficacy", "setting": "H460 cells; [3]", "value": "0.6543 and 0.6301"}, {"measurement": "Inhibitory efficacy", "setting": "H460 cells; [4]", "value": "0.6649 and 0.6664"}, {"measurement": "IC50", "setting": "H460 cells; Homo sapiens, NCI-H460, 48 h, read-out: IC50 (μM) H460, CCK-8, 48 h, average ± SD of three independent experiments", "value": "4.89 ± 0.23", "unit": "µM"}, {"measurement": "inhibition at 2 µM", "setting": "H460 cells; Homo sapiens, NCI-H460, read-out: Inhibitory efficacy, H460 cells, 2uM, given as fraction, Repeat 1-3", "value": 34.4, "unit": "%"}, {"measurement": "inhibition at 4 µM", "setting": "H460 cells; Homo sapiens, NCI-H460, read-out: Inhibitory efficacy, H460 cells, 4uM, given as fraction, Repeat 1-3", "value": 48.9, "unit": "%"}, {"measurement": "inhibition at 8 µM", "setting": "H460 cells; Homo sapiens, NCI-H460, read-out: Inhibitory efficacy, H460 cells, 8uM, given as fraction, Repeat 1-3", "value": 64.7, "unit": "%"}, {"measurement": "inhibition at 16 µM", "setting": "H460 cells; Homo sapiens, NCI-H460, read-out: Inhibitory efficacy, H460 cells, 16uM, given as fraction, Repeat 1-3", "value": 69.5, "unit": "%"}, {"measurement": "melting point", "value": "87 to 90", "unit": "°C"}, {"measurement": "Inhibitory efficacy", "setting": "H1975 cells; [1]", "value": "0.257 and 0.2168"}, {"measurement": "Inhibitory efficacy", "setting": "H1975 cells; [2]", "value": "0.213 and 0.192"}, {"measurement": "Inhibitory efficacy", "setting": "H1975 cells; [3]", "value": "0.4311 and 0.3814"}, {"measurement": "Inhibitory efficacy", "setting": "H1975 cells; [4]", "value": "0.6071 and 0.5938"}, {"measurement": "IC50", "setting": "H1975 cells; Homo sapiens, NCI-H1975, 48 h, read-out: IC50 (μM) H1975, CCK-8, 48 h, average ± SD of three independent experiments", "value": "10.8 ± 1.57", "unit": "µM"}, {"measurement": "inhibition at 2 µM", "setting": "H1975 cells; Homo sapiens, NCI-H1975, read-out: Inhibitory efficacy, H1975 cells, 2uM, given as fraction, Repeat 1-3", "value": 29.1, "unit": "%"}, {"measurement": "inhibition at 4 µM", "setting": "H1975 cells; Homo sapiens, NCI-H1975, read-out: Inhibitory efficacy, H1975 cells, 4uM, given as fraction, Repeat 1-3", "value": 32.2, "unit": "%"}, {"measurement": "inhibition at 8 µM", "setting": "H1975 cells; Homo sapiens, NCI-H1975, read-out: Inhibitory efficacy, H1975 cells, 8uM, given as fraction, Repeat 1-3", "value": 49.2, "unit": "%"}, {"measurement": "inhibition at 16 µM", "setting": "H1975 cells; Homo sapiens, NCI-H1975, read-out: Inhibitory efficacy, H1975 cells, 16uM, given as fraction, Repeat 1-3", "value": 59.9, "unit": "%"}]}
